Reference: patent US7320804B2, “Cough depressant composition containing iron for angiotensin-converting enzyme inhibitor inducing cough” (Samsung Life Public Welfare Foundation Samsund Medical …, priority 2000, dated 2008)
Like-named read-outs stand apart in the source and are kept apart here.

System: ACEI-induced cough
Settings: for Change of cough score, treatment versus observation period (in words): Wilcoxon's signed rank sum test, iron taking group; for Degree of cough, mean daily cough score: 10 patients on ACEI, observation period 6.14 ± 1.41
Experimental: The research pertaining to the ACEI-induced cough depressant effect by the iron was carried out with nineteen patients taking ACEI. These subjects were patients who developed cough as a result of the side effect caused by taking ACEI. The experiment period was divided into the observation period and the treatment period. 10 of the patients took iron and 9 of the patients took placebo.
The effect of the cough depressant containing iron of the present invention was tested. The cough depressant composition used in the test was ferrous sulphate. Anemia medicine sold as Feroba (trademark), whose ferrous sulphate was removed, was used as the placebo. The 19 tested patients had developed persistent dry cough while taking ACEI for various reasons. They include 6 men and 13 women, whose mean age was 59.9±12.2 years. The patients were divided into groups; the treatment group, which comprised 10 patients taking iron, and the control group, comprising 9 patients taking placebo. The characteristics of the patients are denoted in Table 1. All the patients gave informed consent, and the test was approved by the ethical committee of the Samsung Medical Center and Samsung Biomedical Research Center, Seoul, Korea.
ACEI-induced cough was defined as dry cough that occurred with ACEI use that subsided in seven days after discontinuation of the drug, and reappeared within 48 hours after the re-introduction of the drug and with no abnormality in the lungs and the bronchi.
19 patients completed a cough diary during a 2-week observation period while taking ACEI only. […] Each day was divided into two 12-hour periods. The daytime period began at 8 A.M., and the nighttime period, vice versa. Patients recorded the cough score for each period.
At the end of the observation period, blood samples were drawn from the patient for evaluation of hemoglobin level, hematocrit, iron concentration, total iron binding capacity (“TIBC”), and ferritin concentration. After sampling, they were randomized to either an iron taking group or placebo taking group. 256 mg of ferrous sulfate (of which 80 mg is ferrate) was daily administered to the iron taking group. During the four weeks of the treatment period, subjects were asked to fill in a cough diary in the identical way that they completed the diary in the observation period. After four weeks of the treatment period, blood sampling was repeated for the same evaluation (hemoglobin level, hematocrit, iron concentration, total iron binding capacity (“TIBC”) and ferritin concentration) that was performed in the initiation of the treatment period.
Cough scores from the last week of the observation period and the last week of the treatment period were compared and evaluated. The total sum of the cough scores were calculated from cough scores during the daytime and the nighttime recorded from the range of 0 to 4 for the last week of the observation period and the treatment period, and mean daily cough scores were calculated by dividing the total amount by days. Also, the cough score during the daytime and the nighttime was compared separately. […] The two groups were compared using Wilcoxon's signed rank sum test.

For `O=S(=O)([O-])[O-].[Fe+2]` [Iron, ferrous sulphate], the “Change of cough score, treatment versus observation period (in words)” value (listed as ferrous sulphate) was “significantly reduced”, the “Change of cough score, treatment versus observation period (in words)” value (listed as iron) was “significant reduction of dry cough” and the “Degree of cough, mean daily cough score” value (last week of 4-week treatment period, 256 mg ferrous sulfate daily, mean ± SD) was 3.39 ± 2.20 score. The “Degree of cough, mean daily cough score” value (last week of 4-week treatment period, 256 mg ferrous sulfate daily, mean ± SD, listed as iron) was 3.39±2.20 score, the “Degree of cough, daytime cough score” value (last week of 4-week treatment period, 256 mg ferrous sulfate daily, mean ± SD, observation period 2.86 ± 0.86) was 1.51 ± 1.00 score and the “Degree of cough, nighttime cough score” value (last week of 4-week treatment period, 256 mg ferrous sulfate daily, mean ± SD, observation period 3.29 ± 0.73) was 1.87 ± 1.24 score. For the same compound, the “Number of patients showing almost complete abolishment of cough” value (of 10 patients in the iron taking group) was “three” and the “Number of patients showing reduction in cough (decrease in cough score)” value (of 10 patients who took iron, treatment versus observation period) was 9 patients.
